From US4102886A, “Process for the preparation of benzo(a)quinolizidine derivatives” (priority 1974, dated 1978)
Like-named read-outs stand apart in the source and are kept apart here.

Experiments:
[1] = Inhibition of kaolin-induced oedema; assay type: in vivo; details: in vivo; LD50/ED50; read-out: Therapeutical index LD50/ED50, kaolin-oedema
Protocol: (§1) Inhibition of Kaolin- and carrageenin-induced oedema
(§2) The tests were carried out on groups each consisting of at least 10 animals. The percentage inhibition of oedema, in relation to the untreated controls, was determined for each of the animals, and the average values were calculated.

kaolin-induced oedema = experiment: Inhibition of kaolin-induced oedema; assay type: in vivo; details: 2 hours
Protocol: as §1, §2

[2] = Inhibition of carrageenin-induced oedema; assay type: in vivo; details: in vivo; LD50/ED50; read-out: Therapeutical index LD50/ED50, carrageenin-oedema
Protocol: as §1, §2

[3] = test system: carrageenin-induced oedema; experiment: Inhibition of carrageenin-induced oedema; assay type: in vivo; details: 1.5 hours
Protocol: as §1, §2

[4] = test system: serotonine-induced oedema; experiment: Tests performed on serotonine-induced oedema; assay type: in vivo
Protocol: Tests performed on serotonine-induced oedema
The tests were carried out on groups each consisting of 10 animals. The percentage inhibition of oedema, in relation to the untreated controls, was determined for each of the animals. The data listed in Table 3 are the averages of the inhibition values.

[5] = Analgesic effect by the hot-plate test; assay type: in vivo; details: 50 mg./kg. p.o.
rats = experiment: Acute toxicity tests; assay type: in vivo; details: p.o., Litchfield-Wildoxon method
Protocol: (§3) The acute toxicity values of the compounds were determined on rats, after oral administration. The LD50 values were calculated according to the Litchfield-Wildoxon method.

[6] = Determination of ulcer index
Cotton granuloma = Cotton granuloma test; assay type: in vivo; details: 50 mg./kg.
[7] = test system: experimentally provoked fever; experiment: Antipyretic activity (experimentally provoked fever); assay type: in vivo; design: unit not given here
Description: Besides their antiphlogistic activities, some of the benzo(a)quinolizidine derivatives exert antipyretic effects as well. On the basis of the tests performed on experimentally provoked fever, the antipyretic activities of the compounds according to the invention surpass the effect of amidazophenum.

[8] = Analgesic effect by the writhing test; assay type: in vivo
Acute toxicity tests = assay type: in vivo; details: rat, in vivo, po; rats, Litchfield-Wildoxon method
Protocol: as §3

[9] = in vivo
central nervious system = experiment: Narcosis potentiating effect; assay type: in vivo
[10] = Toxicity tests performed with compound SC-118; assay type: in vivo; details: rat, in vivo, CFY rats
Protocol: (§4) In order to give a more detailed information, in the following there are given the results of the toxicity tests performed with compound SC-118. The tests were carried out on CFY rats, each weighing 150 to 200 g.

CFY rats = experiment: Toxicity tests performed with compound SC-118; assay type: in vivo
Protocol: as §4

[11] = 25 mg./kg. p.o., 1 hour after administration
[12] = 25 mg./kg. p.o., 2 hours after administration
[13] = 25 mg./kg. p.o., 3 hours after administration
[14] = 50 mg./kg. p.o., 1 hour after administration
[15] = 50 mg./kg. p.o., 2 hours after administration
[16] = 50 mg./kg. p.o., 3 hours after administration

COc1ccc2c(c1)c(CC(=O)O)c(C)n2C(=O)c1ccc(Cl)cc1 [Indomethacine, reference compound]
selectivity ratio [1]: 2.3 | Inhibition of kaolin-induced oedema 2 hours after administration (kaolin-induced oedema; 10 mg./kg. p.o.): 27.2% | selectivity ratio [2]: 1.3 | Inhibition of carrageenin-induced oedema 1.5 hours after administration ([3]; 10 mg./kg. p.o.): 26.7% | Percentage inhibition 1 hour after administration (serotonine-induced oedema) ([4]; 25 mg./kg. p.o.): 1.4% | Prolongation of the reaction time, % (2 hours after administration) [5]: no evaluable effect can be | LD50 (rats): 12 mg/kg | Erosion ([6]; female): 1/10 | Ulcer ([6]; female): 3/10 | ulcerogeneous effect ([6]; in words): marked ulcerogeneous effect | Erosion ([6]; male): 1/10 | Ulcer ([6]; male): 3/10

CCCCC1C(=O)N(c2ccccc2)N(c2ccccc2)C1=O [Phenylbutazone]
Inhibition of kaolin-induced oedema 2 hours after administration (kaolin-induced oedema; 50 mg./kg. p.o.): 27.5% | Inhibition of carrageenin-induced oedema 1.5 hours after administration ([3]; 50 mg./kg. p.o.): 24.3% | Effect, % (cotton granuloma test) (Cotton granuloma): 19.6% | Percentage inhibition 1 hour after administration (serotonine-induced oedema) ([4]; 100 mg./kg. p.o.): 10.2% | Variation of body temperature [7, 11]: -0.82 | Variation of body temperature [7, 12]: -0.84 | Variation of body temperature [7, 13]: -0.73 | Variation of body temperature [7, 14]: -1.05 | Variation of body temperature [7, 15]: -1.07 | Variation of body temperature [7, 16]: -0.76 | Prolongation of the reaction time, % (2 hours after administration) [5]: no evaluable effect can be | Activity, % (reduction of the number of writhings in relation to the controls) ([8]; 100 mg./kg. p.o.): 17.6% | LD50 (Acute toxicity tests): 1180 mg/kg | Erosion [9]: 0/10

N#CCCC1CN2CCc3cc4c(cc3C2CC1=O)OCO4 (stereo not drawn) [SC-118, 2-Oxo-3-(β-cyano-ethyl)-9,10-methylenedioxy-1,2,3,4,6,7-hexahydro-11bH-benzo(a)quinolisidine]
selectivity ratio [1]: 29.2 | Inhibition of kaolin-induced oedema 2 hours after administration (kaolin-induced oedema; 25 mg./kg. p.o.): 18.1% | Inhibition of kaolin-induced oedema 2 hours after administration (kaolin-induced oedema; 50 mg./kg. p.o.): 27.5% | Inhibition of kaolin-induced oedema 2 hours after administration (kaolin-induced oedema; 75 mg./kg. p.o.): 43.7% | Inhibition of kaolin-induced oedema 2 hours after administration (kaolin-induced oedema; 100 mg./kg. p.o.): 53.4% | selectivity ratio [2]: 22.6 | Inhibition of carrageenin-induced oedema 1.5 hours after administration ([3]; 25 mg./kg. p.o.): 22.0% | Inhibition of carrageenin-induced oedema 1.5 hours after administration ([3]; 50 mg./kg. p.o.): 30.6% | Inhibition of carrageenin-induced oedema 1.5 hours after administration ([3]; 75 mg./kg. p.o.): 47.7% | Inhibition of carrageenin-induced oedema 1.5 hours after administration ([3]; 100 mg./kg. p.o.): 52.7% | Effect, % (cotton granuloma test) (Cotton granuloma): 26.4% | Percentage inhibition 1 hour after administration (serotonine-induced oedema) ([4]; 25 mg./kg. p.o.): 28.5% | Percentage inhibition 1 hour after administration (serotonine-induced oedema) ([4]; 50 mg./kg. p.o.): 42.1% | Percentage inhibition 1 hour after administration (serotonine-induced oedema) ([4]; 75 mg./kg. p.o.): 48.7% | Variation of body temperature [7, 11]: -1.67 | Variation of body temperature [7, 12]: -1.81 | Variation of body temperature [7, 13]: -1.60 | Variation of body temperature [7, 14]: -2.75 | Variation of body temperature [7, 15]: -3.34 | Variation of body temperature [7, 16]: -4.03 | Prolongation of the reaction time, % (2 hours after administration) [5]: 61.2% | Activity, % (reduction of the number of writhings in relation to the controls) ([8]; 50 mg./kg. p.o.): 41.8% | Prolongation of the sleep period in relation to the untreated controls, % (central nervious system; 25 mg./kg. p.o.): 96.4% | Prolongation of the sleep period in relation to the untreated controls, % (central nervious system; 50 mg./kg. p.o.): 253.0% | LD50 (Acute toxicity tests): 1410 mg/kg | LD50 ([10]; female, read-out: LD50, f): 1400 mg/kg | LD50 ([10]; male, read-out: LD50, m): 1420 mg/kg | Dead animals/treated animals (CFY rats; 750 mg./kg., 24 hours, female): 0/10 | Dead animals/treated animals (CFY rats; 750 mg./kg., 24 hours, male): 0/10 | Dead animals/treated animals (CFY rats; 750 mg./kg., 48 hours, female): 0/10 | Dead animals/treated animals (CFY rats; 750 mg./kg., 48 hours, male): 0/10 | Dead animals/treated animals (CFY rats; 750 mg./kg., 72 hours, female): 0/10 | Dead animals/treated animals (CFY rats; 750 mg./kg., 72 hours, male): 0/10 | Dead animals/treated animals (CFY rats; 1000 mg./kg., 24 hours, female): 2/10 | Dead animals/treated animals (CFY rats; 1000 mg./kg., 24 hours, male): 1/10 | Dead animals/treated animals (CFY rats; 1000 mg./kg., 48 hours, female): 2/10 | Dead animals/treated animals (CFY rats; 1000 mg./kg., 48 hours, male): 2/10 | Dead animals/treated animals (CFY rats; 1000 mg./kg., 72 hours, female): 2/10 | Dead animals/treated animals (CFY rats; 1000 mg./kg., 72 hours, male): 2/10 | Dead animals/treated animals (CFY rats; 1250 mg./kg., 24 hours, female): 3/10 | Dead animals/treated animals (CFY rats; 1250 mg./kg., 24 hours, male): 2/10 | Dead animals/treated animals (CFY rats; 1250 mg./kg., 48 hours, female): 3/10 | Dead animals/treated animals (CFY rats; 1250 mg./kg., 48 hours, male): 3/10 | Dead animals/treated animals (CFY rats; 1250 mg./kg., 72 hours, female): 3/10 | Dead animals/treated animals (CFY rats; 1250 mg./kg., 72 hours, male): 3/10 | Dead animals/treated animals (CFY rats; 1500 mg./kg., 24 hours, female): 6/10 | Dead animals/treated animals (CFY rats; 1500 mg./kg., 24 hours, male): 5/10 | Dead animals/treated animals (CFY rats; 1500 mg./kg., 48 hours, female): 6/10 | Dead animals/treated animals (CFY rats; 1500 mg./kg., 48 hours, male): 5/10 | Dead animals/treated animals (CFY rats; 1500 mg./kg., 72 hours, female): 6/10 | Dead animals/treated animals (CFY rats; 1500 mg./kg., 72 hours, male): 5/10 | Dead animals/treated animals (CFY rats; 1750 mg./kg., 24 hours, female): 6/10 | Dead animals/treated animals (CFY rats; 1750 mg./kg., 24 hours, male): 6/10 | Dead animals/treated animals (CFY rats; 1750 mg./kg., 48 hours, female): 8/10 | Dead animals/treated animals (CFY rats; 1750 mg./kg., 48 hours, male): 8/10 | Dead animals/treated animals (CFY rats; 1750 mg./kg., 72 hours, female): 8/10 | Dead animals/treated animals (CFY rats; 1750 mg./kg., 72 hours, male): 8/10 | Dead animals/treated animals (CFY rats; 2000 mg./kg., 24 hours, female): 10/10 | Dead animals/treated animals (CFY rats; 2000 mg./kg., 24 hours, male): 10/10 | Dead animals/treated animals (CFY rats; 2000 mg./kg., 48 hours, female): 10/10 | Dead animals/treated animals (CFY rats; 2000 mg./kg., 48 hours, male): 10/10 | Dead animals/treated animals (CFY rats; 2000 mg./kg., 72 hours, female): 10/10 | Dead animals/treated animals (CFY rats; 2000 mg./kg., 72 hours, male): 10/10 | Erosion ([6]; female): 0/10 | Ulcer ([6]; female): 0/10 | Erosion ([6]; male): 0/10 | Ulcer ([6]; male): 0/10
